Like-named read-outs stand apart in the source and are kept apart here.
Target: T1, NLuc‐A2BR (Homo sapiens, UniProt P29275)
T1 construct: expressed in transfected cells
T1 sequence (P29275 1-332): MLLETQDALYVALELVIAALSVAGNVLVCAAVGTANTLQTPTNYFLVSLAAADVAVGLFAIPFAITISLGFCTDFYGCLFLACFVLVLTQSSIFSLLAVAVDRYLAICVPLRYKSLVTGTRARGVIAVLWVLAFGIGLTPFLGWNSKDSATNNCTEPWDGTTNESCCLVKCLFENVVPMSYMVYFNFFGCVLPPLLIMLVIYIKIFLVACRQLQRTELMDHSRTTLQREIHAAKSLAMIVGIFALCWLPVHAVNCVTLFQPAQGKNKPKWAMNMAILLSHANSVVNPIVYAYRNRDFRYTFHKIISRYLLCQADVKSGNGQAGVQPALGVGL
Test: NanoBRET ligand‐binding kinetics of 200 nM PSB603‐BY630 in HEK293G cells expressing NLuc‐A2BR
Procedure: Saturation and competition binding assays were performed as previously described.[36] Briefly, cells were seeded in 96‐well white clear‐bottomed Greiner plates pre‐treated with 10 μg/mL poly‐D‐lysine (Sigma‐Aldrich, Missouri USA) at a density of 30 000–35 000 cells per well in DMEM supplemented with 10% FBS. The following day medium was removed and cells were incubated with PSB603‐BY630 in the presence or absence of 1 μM MRS1706 (saturation binding assays) or competing ligand in the presence of 50 nM PSB603‐BY630 (competition binding assays) in HEPES buffered saline solution (HBSS; 145 mM NaCl, 5 mM KCl, 1.3 mM CaCl2, 1 mM MgSO4, 10 mM HEPES, 2 mM sodium pyruvate, 1.5 mM NaHCO3, 10 mM D‐glucose, pH 7.45) with 0.1% bovine serum albumin for 1 h at 37°C. The NanoLuc substrate, furimazine (Promega Corporation, Wisconsin, USA), was then added to each well (1:400 dilution) and the plate was incubated for 10 min in the dark at 37°C. The resulting bioluminescence resonance energy transfer (BRET) was measured using a PHERAstar FS plate reader (BMG Labtech) at 37°C. For each well, filtered light emissions at 460 nm (80 nm bandpass) and >610 nm (longpass) for the BODIPY630/650 ligand were simultaneously measured. BRET ratios were calculated by dividing the 610 nm emission by the 460 nm emission. All conditions were performed in 2–6 replicates within each plate. For kinetic experiments, cells were preincubated for 10 min with 1:400 dilution of furimazine prior to addition of 200 nM PSB603‐BY630 and BRET ratios determined every 0.5 min. At 60 min, 10 μM MRS‐1706 was added and the ligand‐binding kinetics followed for a further 60 min.
For kinetic binding experiments, the BRET ratio obtained in the absence of fluorescent ligand was determined for each time point and subtracted from the total binding to obtain baseline‐corrected values for total binding at each time point. 60 min after addition of 200 nM PSB603‐BY630, 10 μM MRS‐1706 was added and the dissociation data fitted to the following equation to obtain values for the dissociation rate constant (k off) in min^−1: Y=Yo−NS.e^−koff.t+NS where [Yo] is the binding at time 60 min (when 10 μM MRS‐1706 was added), NS is the non‐specific binding at infinite time, k off is dissociation rate constant. The residence time in min was then calculated as the reciprocal of k off.

CCCn1c(=O)[nH]c2[nH]c(-c3ccc(S(=O)(=O)N4CCN(c5ccc(OCCNC(=O)CCCCCNC(=O)COc6ccc(/C=C/C7=[N+]8C(=Cc9ccc(-c%10cccs%10)n9[B-]8(F)F)C=C7)cc6)cc5)CC4)cc3)nc2c1=O [PSB603‐BY630]
koff (200 nM PSB603‐BY630, 10 μM MRS‐1706 at 60 min, single representative experiment (Figure 5), read-out: K off in representative experiment (converted)): 0.000933 s⁻¹
time to reach binding equilibrium (200 nM PSB603‐BY630, 37°C): ≤ 60 min
koff (200 nM PSB603‐BY630, dissociation initiated with 10 μM MRS‐1706 at 60 min, 37°C, 5 experiments, read-out: dissociation rate constant k off (mean) (converted)): 0.00108 s⁻¹
residence time (reciprocal of k off, 37°C): 15.4 min

Source: paper PMC11191602, “A novel and selective fluorescent ligand for the study of adenosine A2B receptors” (Pharmacology Research & Perspectives, 2024)
